Measurements from patent US20110311601A1, “ANTIMICROBIAL MEDICAL DEVICES” (priority 2010, published 2011).
Where no end group is shown, it is not given here.

Legend:
Test in all cases: micro-dilution assay (MBC, LD90)
Type in all cases: cell-based
[1] = tested on: Staphylococcus aureus (MRSA 355) (wild-type)
Experimental: (§1) The anti-bacterial activity of hβD2 was tested by a micro-dilution assay. Bacteria and fungi were streaked from a glycerol stock onto a Brain Heart Infusion (BHI) agar plate (3.7% w/v BHI Bouillon, 1.5% w/v Agar), grown overnight at 37° C. and 30° C., respectively and subsequently used to inoculate 40 ml of 3.7% w/v BHI Bouillon without any antibiotics in 100 ml flasks. Fresh cells were harvested by centrifugation at 16000 rpm for 10 min and washed twice with 10 mM sodium phosphate buffer, pH 7.2. The optical density was adjusted to 10^4 cells/ml. For anti-bacterial testing hβD2 was incubated in one well of a microtiter plate containing 100 μl of the bacterial suspension. Therefore, ten microlitres of hβD2 solution with a range of final concentrations tested from 0.0125 up to and including 100 mg/l was added to the bacterial suspension and incubated at 37° C. and 30° C., respectively for 2 h before colony forming units were determined. Colony forming units (CFU) were determined after plating 100 μl of a 1:100 dilution of the bacterial suspension on petri dishes with BHI medium and incubating them overnight at 37° C. For every group of the hβD2 added samples and the controls, 5 independent anti-bacterial assays were performed. A control (NC) of bacterial growth was examined for every independent assay. The number of CFU on the control (consisting of a single petri dish) was set to 0% bactericidal activity. The reduction in the CFU resulting from the anti-bacterial activity of hβD2 was related to the absolute CFU of the control within every independent assay. This value, given as a percentage of the bacterial “killing” activity, was used to describe the antibacterial activity. This kind of normalisation of the antibacterial data was performed for every experimental group.
(§2) The antibacterial activity of hβD2 were given either as minimum bactericidal concentration (MBC), i.e., the minimum concentration of hβD2 in μg/ml which is required to kill 99.9% of the bacteria or fungi or as lethal dose (LD90), i.e., the concentration of hβD2 in μg/ml which is lethal for 90% of bacteria or fungi.

[2] = tested on: Acinetobacter genosp. 3 ATCC 19004
Experimental: as §1, §2

[3] = tested on: Staphylococcus aureus ATCC 33593 (MRSA)
Experimental: as §1, §2

[4] = tested on: Brevundimonas diminuta ATCC 11568
Experimental: as §1, §2

[5] = tested on: Pseudomonas aeruginosa CF 509 mr (wild-type)
Experimental: as §1, §2

[6] = tested on: Issatchenkia orientalis ATCC 6258
Experimental: as §1, §2

[7] = tested on: Pseudomonas aeruginosa CF 453 Va mr (wild-type)
Experimental: as §1, §2

[8] = tested on: Pseudomonas aeruginosa ATCC 39324
Experimental: as §1, §2

[9] = tested on: Acinetobacter Genosp. 11 ATCC 11171
Experimental: as §1, §2

[10] = tested on: Citrobacter freundii UR 1776/03 (wild-type)
Experimental: as §1, §2

[11] = tested on: Staphylococcus aureus ATCC 43300 (MRSA)
Experimental: as §1, §2

[12] = tested on: Proteus mirabilis UR 1536/03 (wild-type)
Experimental: as §1, §2

[13] = tested on: Propionibacterium acnes NCTC 737
Experimental: as §1, §2

[14] = tested on: Citrobacter freundii NCTC 9750
Experimental: as §1, §2

[15] = tested on: Prevotella intermedia ATCC 25611
Experimental: as §1, §2

[16] = tested on: Acinetobacter baumannii ATCC 19606
Experimental: as §1, §2

[17] = tested on: Proteus vulgaris ATCC 13315
Experimental: as §1, §2

[18] = tested on: Pseudomonas putida BK 4912
Experimental: as §1, §2

[19] = tested on: Proteus mirabilis ATCC 21100
Experimental: as §1, §2

[20] = tested on: Pseudomonas aeruginosa ATCC 11446
Experimental: as §1, §2

[21] = tested on: Streptococcus pneumoniae ATCC 33400
Experimental: as §1, §2

[22] = tested on: Staphylococcus aureus (MRSA 358) (wild-type)
Experimental: as §1, §2

[23] = tested on: Proteus vulgaris UR 1464/03 (wild-type)
Experimental: as §1, §2

[24] = tested on: Providencia stuartii NCTC 10318
Experimental: as §1, §2

[25] = tested on: Acinetobacter calcoaceticus ATCC 23055
Experimental: as §1, §2

[26] = tested on: Klebsiella pneumoniae ATCC 700603 ESBL
Experimental: as §1, §2

Substance: human β-defensin-2 (GIGDPVTCLKSGAICHPVFCPRRYKQIGTCGLPGTKCCKKP; ends and bridges not checked; cysteine pairing not given here) [hβD2, recombinant hβD2]
- LD 90 = μg/ml 90% killing [1]: 25 µg/mL
- MBC = μg/ml 99.9% killing [1]: 100 µg/mL
- LD 90 = μg/ml 90% killing [2]: 0.2 µg/mL
- MBC = μg/ml 99.9% killing [2]: 0.78 µg/mL
- LD 90 = μg/ml 90% killing [3]: 100 µg/mL
- MBC = μg/ml 99.9% killing [3]: >100 µg/mL
- LD 90 = μg/ml 90% killing [4]: 6.25 µg/mL
- MBC = μg/ml 99.9% killing [4]: 12.5 µg/mL
- LD 90 = μg/ml 90% killing [5]: 12.5 µg/mL
- MBC = μg/ml 99.9% killing [5]: 25 µg/mL
- LD 90 = μg/ml 90% killing [6]: 6.25 µg/mL
- MBC = μg/ml 99.9% killing [6]: 50 µg/mL
- LD 90 = μg/ml 90% killing [7]: 12.5 µg/mL
- MBC = μg/ml 99.9% killing [7]: 25 µg/mL
- LD 90 = μg/ml 90% killing [8]: 12.5 µg/mL
- MBC = μg/ml 99.9% killing [8]: 25 µg/mL
- LD 90 = μg/ml 90% killing [9]: 0.39 µg/mL
- MBC = μg/ml 99.9% killing [9]: 3.125 µg/mL
- LD 90 = μg/ml 90% killing [10]: 1.56 µg/mL
- MBC = μg/ml 99.9% killing [10]: 6.25 µg/mL
- LD 90 = μg/ml 90% killing [11]: 100 µg/mL
- MBC = μg/ml 99.9% killing [11]: >100 µg/mL
- LD 90 = μg/ml 90% killing [12]: 100 µg/mL
- MBC = μg/ml 99.9% killing [12]: >100 µg/mL
- LD 90 = μg/ml 90% killing [13]: 50 µg/mL
- MBC = μg/ml 99.9% killing [13]: 100 µg/mL
- LD 90 = μg/ml 90% killing [14]: 12.5 µg/mL
- MBC = μg/ml 99.9% killing [14]: 50 µg/mL
- LD 90 = μg/ml 90% killing [15]: 3.125 µg/mL
- MBC = μg/ml 99.9% killing [15]: 3.125 µg/mL
- LD 90 = μg/ml 90% killing [16]: 12.5 µg/mL
- MBC = μg/ml 99.9% killing [16]: 25 µg/mL
- LD 90 = μg/ml 90% killing [17]: 3.125 µg/mL
- MBC = μg/ml 99.9% killing [17]: 12.5 µg/mL
- LD 90 = μg/ml 90% killing [18]: 6.25 µg/mL
- MBC = μg/ml 99.9% killing [18]: 12.5 µg/mL
- LD 90 = μg/ml 90% killing [19]: 50 µg/mL
- MBC = μg/ml 99.9% killing [19]: >100 µg/mL
- LD 90 = μg/ml 90% killing [20]: 12.5 µg/mL
- MBC = μg/ml 99.9% killing [20]: 12.5 µg/mL
- LD 90 = μg/ml 90% killing [21]: 25 µg/mL
- MBC = μg/ml 99.9% killing [21]: 50 µg/mL
- LD 90 = μg/ml 90% killing [22]: 100 µg/mL
- MBC = μg/ml 99.9% killing [22]: >100 µg/mL
- LD 90 = μg/ml 90% killing [23]: 3.125 µg/mL
- MBC = μg/ml 99.9% killing [23]: 12.5 µg/mL
- LD 90 = μg/ml 90% killing [24]: 100 µg/mL
- MBC = μg/ml 99.9% killing [24]: >100 µg/mL
- LD 90 = μg/ml 90% killing [25]: 0.39 µg/mL
- MBC = μg/ml 99.9% killing [25]: 0.78 µg/mL
- LD 90 = μg/ml 90% killing [26]: 25 µg/mL
- MBC = μg/ml 99.9% killing [26]: 100 µg/mL
